Reference: US10732172B1, “Methods, systems, and compositions for determining blood clot formation, and uses thereof” (President and Fellows of Harvard College, priority 2015, dated 2020)

Test system: primary alveolar epithelial cells (AE) and endothelial cells with whole blood
Experiment: Lung-on-a-chip stimulated with TNF-α or LPS: vascular ICAM-1, P-E, clots, gap junctions
Assay type: cell-based, human
Description: Specifically, the analysis includes a method to quantitate platelet function in flow chambers and microfluidic devices that has been primarily limited to analyzing platelet adhesion on bare collagen surfaces. To analyze platelet-endothelial dynamics that will act as a robust readout of physiologically-relevant clotting, an automated imaging program creates an image time-series, K(x, y, t), containing a 10-frame panorama in space. Images are acquired at a frame rate of 2 panoramic images per minute, for a total time of 15 minutes. A non-dimensional stochastic index is derived to quantitate platelet endothelial dynamics (“P-E”), which is the interpercentile range of a coefficient of variance of the image time-series: P-E=range(CV(K(x,y,t) (1) A feature of this analytical readout is that instead of an “ensemble averaging,” the method incorporates the cell-surface interactions at the pixel level and quantitates statistical “dispersion” of interactions.
After plasma treatment of the microfluidic devices, the two chambers are pre-treated with 10% (3-aminopropyl)-trimethoxysilane (APTMES, e.g., from Sigma) in 100% anhydrous alcohol (e.g., from Sigma) for 10-20 minutes. The chambers are flushed sequentially with 70% ethanol in water and 100% ethanol, and then dried at 60-80° C. for two hours. Then, a mixture of rat tail collagen I (100 μg ml^−1 in PBS, from BD Biosciences) and fibronectin (e.g., 30 μg/ml in PBSm, from BD Biosciences) is introduced in both chambers of the microfluidic device. The microfluidic device is incubated at 37° C. for at least 2 hours before flushing with PBS or EGM-2 cell culture media.
Some of the microfluidic devices are used with collagen coating alone (without cells). In other devices, HUVECs (e.g. from Lonza) are cultured in Endothelial Growth Medium-2 (EGM-2, from Lonza) and used between certain passages. The cells (5-10×10^6 cells/ml) are introduced into the collagen-coated channels and incubated for 20 minutes at 37° C. to promote cell attachment before a second similar HUVEC suspension is, then, introduced. The microfluidic devices are incubated upside down for an additional 20 minutes to seed the cells on the ceiling and walls of the lower chamber.
The lower chamber is then flushed with EGM-2 and, then, a suspension of primary alveolar epithelial cells (e.g., from ScienCell Research Labs, Carlsbad, Calif.; 5-6×10^6 cells ml^−1) is introduced into the top chamber of the device. After a few hours, the top and bottom chambers are flushed with their respective media, and the microfluidic devices are incubated at 37° C. under 5% CO2 for 3 days (with media being replaced each day once). On day 4, the bottom vascular chamber is set on perfusion of EGM-2 media (e.g., 30 μL hr^−1; 0.5% fetal bovine serum) to provide shear to the HUVEC vessel chamber and a continuous supply of fresh media.
On day 6, the epithelial cell media in the top chamber is aspirated to create the air-liquid interface of the alveoli. Hereon, the cell culture continues for another 6-8 days, after which, in some cases, the top chamber is supplemented with 0, 5, or 100 ng ml^−1 TNF-α in PBS (e.g., from Sigma) overnight or LPS (e.g., 100 ng ml^−1 of E. Coli, from Sigma,) for 2 hours to cause cell activation. The LPS is sonicated in ultrasonic bath for about 20-30 minutes before introducing into the microfluidic device. After stimulation, the top chamber is clamped, the bottom chamber is rinsed with culture media, a reservoir cut from a 3 ml slip-tip syringe (e.g., from BD) is inserted on one end of the lower chamber, and a 1/16-inch male luer connector (e.g., from Qosina Corp) is inserted on the other end of the lower chamber.
When analyzing the formation of fibrin, blood samples re added with 15 μg ml^−1 of fluorescently labeled fibrinogen (e.g., Alexa 488 from Invitrogen). […]

## tumor necrosis factor-α [TNF-α]
TNF-α on alveolar compartment containing AE
  vascular ICAM-1 expression in lung-on-chip: increases in a dose-dependent manner
TNF-α stimulated versus untreated
  platelet-endothelial dynamics in lung-on-chip: follows a similar trend as ICAM-1
TNF-α stimulated, end of assay
  clots (platelets and fibrin) in vascular compartment of lung-on-chip: significant amount of clots are observed
